Assays:
[1] = test system: human myoblast cells; test: Differentiation of human myoblast cells (MyHC immunostaining, percentage area); assay type: cell-based; conditions: Fc4 fusions, 96 hours with daily media change, concentration not printed (FIG. 1B)
Procedure: (§1) FIG. 1A: The suspension CHO cells were transiently transfected with the IGF2-hFcm encoding plasmid. IGF2-hFcm was affinity-purified by Protein A membrane column. The purified IGF2-hFcm was added into the culture of human myoblast cells for 96 hours. Myosin heavy chain (MyHC) was immunostained and imaged by a fluorescence microscope.
as §1, with “1B:” for “1A:”, “IGF2-LhFc4” for “IGF2-hFcm”, “hours with daily media change.” for “hours.”
FIG. 2A: The suspension CHO cells were transiently transfected with the HSA-L-IGF2R61A encoding plasmid. HSA-L-IGF2R61A was affinity-purified by Protein A membrane column. […] Myosin heavy chain (MyHC) was immunostained and imaged by a fluorescence microscope.
Suspension CHO cells were transiently transfected with the IGF2-hFcm encoding plasmid. […] After quantification of the stained MyHC, the percentage area of MyHC was calculated as the percent of pixels within the field that are illuminated above background in the stained channel. […] Significance was determined by a p-value less than 0.05 by the one-way ANOVA Tukey Honest Significant Difference test.

[2] = test system: female C57/BL6 (NIA) mice (20 months of age); test: Acute injury model (cardiotoxin in tibialis anterior); assay type: in vivo; conditions: IM 0.4 ug/20 μL every other day, vs vehicle (HSA)
Procedure: The acute injury model of Example 18 was used. […] female C57/BL6 (NIA) mice (20 months of age) were injected intramuscularly (IM) in each tibialis anterior with cardiotoxin at day one (10 ug/20 μL) and from day two the mice were given IM injections every other day with 0.4 ug/20 μL of 6HIS-HSA-IGF2R61A (SEQ ID NO: 34) or vehicle (0.4 ug/20 μL of HSA).

[3] = test system: healthy human muscle precursors from person; test: In vitro myogenesis assay, healthy human muscle precursors; assay type: cell-based
Procedure: (§2) Human muscle progenitor cells (early passage myoblasts) were cultured and expanded in growth medium: Ham's F-10 (Gibco), 20% Bovine Growth Serum (Hyclone), 5 ng/mL FGF2 and 1% penicillin-streptomycin on Matrigel coated plates (1:300 matrigel: PBS), at 37° C. and 5% CO2. For experimental conditions, cells were plated at 40,000 cells/well on Matrigel coated 8-well chamber slides in 250-500 μL medium per well (1:100 matrigel: PBS) in human fusion medium: DMEM (Gibco)+2% horse serum (Hyclone). One hour after plating, human myoblasts were treated with 50% respective media: […] myoblasts were cultured for 24 hours in the above conditions, at 37° C. in 10% CO2 incubator. BrdU (300 uM) in DMSO was added for 2 hours prior to fixation with cold 70% ethanol and stored at 4° C. until staining.
(§3) Following permeabilization in PBS+0.25% t-Octylphenoxypolyethoxyethanol (Triton™ X-100), antigen retrieval was performed. Primary staining was performed with primary antibodies including: a species-specific monoclonal antibody for mouse anti-embryonic Myosin Heavy Chain (eMyHC, hybridoma clone 1.652, Developmental Studies Hybridoma Bank) and Rat-anti-BrdU (Abcam Inc. ab6326). […]

[4] = test system: human DM1 muscle precursors from person; test: In vitro myogenesis assay, human DM1 muscle precursors; assay type: cell-based; conditions: across a range of test article concentrations
Procedure: as §2, §3

[5] = Murine pharmacokinetics, intravenous, ELISA, non-compartment analysis; assay type: in vivo, mice; conditions: mice
Procedure: Murine pharmacokinetics (PK) represents the absorption, distribution, metabolism, and elimination of drugs from the body. The pharmacokinetic profile of the therapeutic polypeptides were determined in mice (10-12 weeks old). Mice were fed ad libitum and housed under controlled conditions of lighting (12-hour light/12-hour dark) and temperature (22-24° C.). Mice were allowed to acclimate for 3 days prior to the initiation of the experiment. Intravenous (IV) injection in 10-12 weeks old mice. Engineered mitogenic polypeptides concentrations in the samples were measured by ELISA. Various pharmacokinetics will be calculated as well as the absorption/elimination dynamics following different routes of administration.

[6] = test system: DM1 human myoblast; test: Myogenic gene expression fold change in DM1 human myoblast; assay type: cell-based; conditions: 48 h; BMP7 50 ng/mL, Butyrate 100 nM, IGF2 200 ng/mL
Procedure: Myoblasts were cultured 48 h in the presence of factors (BMP7 50 ng/mL, Butyrate 100 nM, IGF2 200 ng/mL).
Myoblasts were cultured 96 h in the presence of factors (IGF2 200 ng/ml). […] Myoblasts were cultured 48 h in the presence of factors (IGF2 200 ng/mL).
IGF2 was tested individually for its ability to promote proliferation and/or fusion of human muscle progenitor cells from an individual with myotonic dystrophy type 1 (hMD)—a muscular dystrophy caused by mutations in the DMPK1 gene. The effect of IGF2 on myogenic activity was assayed in biological triplicate across a range of concentrations centered around expected physiological levels by adding each factor to hMD myoblasts for 72 hours with daily media changes (DMEM +2% horse serum) and a second pulse of factors at the first media change. After 72 or 96 hours, cells were pulsed for 2-5 hours with EdU (30 uM), ethanol fixed, stained with Hoescht 3342, immunostained for proliferation—as measured by the percent of cells staining positive for EdU (% EdU)-, and immunostained for differentiation—as measured by the increase in cellular area staining positive for embryonic myosin heavy chain (% eMyHC) relative to the negative controls, which received media and vehicle only. Wells were imaged on a Keyence BZ-100 at 4×, the images quantified in Cell Profiler, and the statistics were computed in R. Additionally, RNA was extracted from myoblast and select transcript abundances quantified by qPCR.

Compound: IGF2-hFc4: Human IGF2-hFc4, SEQ ID NO: 39
- % MyHC [1]: 6.901%

Compound: HSA-IGF2R61A: His tagged HSA fusion IGF2 R61A mutant with a long linker, SEQ ID NO: 34
- force production (max contraction rate) [2]: increased force production
- force production (specific force-frequency) [2]: increased force production
- muscle fatigue (specific fatigue index) [2]: reduced muscle fatigue
- muscle mass [2]: increased muscle mass
- regenerative index (number of new fibers per square millimeter) [2]: increased regenerative index
- relation rates [2]: improved relation rates
- activity relative to IGF2 at equimolar concentrations ([3]; across a range of test article concentrations): equal activity
- activity relative to HSA-IGF2 at equimolar concentrations ([3]; before or after size exclusion purification via HPLC): equal or increased activity
- activity relative to IGF2 at equimolar concentrations [4]: equal activity
- serum half-life compared to the natural sequence of IGF2 [5]: significantly improved serum half-life

Compound: CCCC(=O)[O-].[Na+] [NaBut, sodium butyrate]
- MYF5 expression fold change compared to FM (vehicle) [6]: 1.128
- MYOD1 expression fold change compared to FM (vehicle) [6]: 1.095
- MYOG expression fold change compared to FM (vehicle) [6]: 1.020

Source: US12329801B2, “Regenerative polypeptides and uses thereof” (JUVENA THERAPEUTICS, INC., priority 2021, dated 2025)
